Results reported in patent US20240317816A1, “PEPTIDES FOR IMMUNOTHERAPY” (Genevive, Inc., priority 2021, published 2024).

What was measured:
[1] = test system: Chemokine receptors; experiment: LRC-TriCEPS LC-MS/MS identification of binding partners; details: living cells, LRC-TriCEPS crosslinker
Protocol: SG-3-00802 binding partners were identified using the mass spectrometry-based proteomics (LC MS/MS)-based LRC-TriCEPS™ technology from DualSystems. To enrich for binding partners the ligand was coupled with the LRC-TriCEPS™ crosslinker and incubated with living cells that expressed target receptors. The enriched proteins were purified and processed for analysis by LC-MS/MS. A parallel experiment using transferrin as control ligand enabled the relative quantification of the enriched proteins. Putative binding partners of SG-3-00802 enriched over transferrin ligand are depicted in a volcano plot (FIG. 3).

[2] = target: T1, human chemokine (C-X-C motif) receptor 3 (Homo sapiens, UniProt P49682); experiment: Positive allosteric modulator assay method 1 (PAM1), Tango CXCR3-bla U2OS; assay type: cell-based
T1 construct: TEV protease site; Gal4-VP16 transcription factor ('Ga14-VP16' [sic]); Tango cell line; host or cells: Tango GPCR-bla U2OS
T1 sequence (P49682 1-368): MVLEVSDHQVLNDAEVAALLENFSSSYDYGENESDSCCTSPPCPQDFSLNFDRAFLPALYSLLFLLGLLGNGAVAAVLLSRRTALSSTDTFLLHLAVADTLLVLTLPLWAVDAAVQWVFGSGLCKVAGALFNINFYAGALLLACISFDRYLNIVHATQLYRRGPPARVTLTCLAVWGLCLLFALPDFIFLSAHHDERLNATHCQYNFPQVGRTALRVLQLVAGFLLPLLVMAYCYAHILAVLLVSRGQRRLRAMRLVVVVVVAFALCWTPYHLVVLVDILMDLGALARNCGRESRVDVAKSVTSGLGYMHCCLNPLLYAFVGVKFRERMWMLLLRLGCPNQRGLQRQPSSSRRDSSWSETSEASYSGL
Description: To assay positive allosteric modulator activity of SG-3-00802 (SEQ ID NO: 1) and SG-3-006683 in CXCR3 cell lines, the cell line Tango™ CXCR3-bla U2OS was used in a positive allosteric modulator assay with two different methods, as described below.
Tango™ CXCR3-bla U2OS cells contain the human chemokine (C-X-C motif) receptor 3 linked to a TEV protease site and a Ga14-VP16 transcription factor stably integrated into the Tango™ GPCR-bla U2OS cell line. This parental cell line stably expresses a beta-arrestin/TEV protease fusion protein and the beta-lactamase reporter gene under the control of a UAS response element. The Tango™ CXCR3-bla U2OS cells have been functionally validated for a response to I-TAC (CXCL11).
In positive allosteric modulator assay method 1 (PAM1), cells were diluted in Assay Media to an appropriate cell density and were added to the assay plate. Peptides were added at increasing concentrations (1 nM-20 mcM) to the cells in the assay plate and incubated for 30 minutes. Ligand (CXCL9, CXCL10, or CXCL11) was added at an EC20 to all wells containing test compound. The assay plate was incubated for 16 hours at 37° C. Substrate Loading Solution was added to the assay plate and incubated for 2 hours at room temperature, in the dark. The assay plate was read on a fluorescence plate reader and the data was analyzed. PAM activity was calculated as follows:
% of PAM=((Test compound−Unstimulated)/(Stimulated−Unstimulated))×100.

[3] = target: T2, CCR9 (Homo sapiens, UniProt P51686); experiment: gpcrMAX PathHunter β-Arrestin Assay; assay type: cell-based
T2 construct: expressed in transfected cells
T2 sequence (P51686 1-369): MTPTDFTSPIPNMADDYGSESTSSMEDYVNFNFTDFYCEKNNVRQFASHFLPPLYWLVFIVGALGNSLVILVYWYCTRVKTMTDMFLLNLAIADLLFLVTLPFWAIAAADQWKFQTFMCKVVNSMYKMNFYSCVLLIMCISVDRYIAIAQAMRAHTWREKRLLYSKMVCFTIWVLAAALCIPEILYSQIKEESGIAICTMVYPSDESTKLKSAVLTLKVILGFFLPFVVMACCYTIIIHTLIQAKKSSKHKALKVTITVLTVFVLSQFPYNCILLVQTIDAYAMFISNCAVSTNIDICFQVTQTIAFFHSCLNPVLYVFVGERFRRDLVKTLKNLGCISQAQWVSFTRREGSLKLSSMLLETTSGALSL
Description: The PathHunter® β-Arrestin Assay monitored activation of a panel of 168 G-protein coupled receptors (GPCRs) with […] activation of the GPCR in agonist and antagonist mode.
where the test sample is the peptide, the vehicle control is DMSO (0% activity), and the control ligand is control compound (100% activity).
Peptides SG-3-00802 and SG-3-05021 were identified as an agonist, an antagonist, a PAM (Positive Allosteric Modulator), or an inverse-agonist. Agonist, antagonist, PAM, and inverse-agonist were identified according to the guidelines in Table 8. The basal activity/noise is a % activity of −20% to 20% for both agonist and antagonist modes. A PAM (Positive Allosteric Modulator) binds to a receptor, at a different site than the agonist, to change the receptor's response to the agonist. An inverse-Agonist is a binding partner with agonistic shutting down of basal activity in the cell. An antagonist antagonizes the activity of a particular binding partner.

[4] = test system: Unstimulated human T cells; experiment: Transwell T cell migration towards CXCR3 ligands; assay type: cell-based
Protocol: T cell migration towards CXCR3 ligands in the presence of SG-3-00802 and SG-3-06683 was tested using a Transwell migration assay. Suboptimal concentrations of each ligand (CXCR3 ligands CXCL9, CXCL10, and CXCL11) were added to the bottom of the transwell with increasing doses of SG-3-00802 or SG-3-006683. An optimal concentration of ligand was used as positive control, as indicated in the graphs.
Unstimulated human T cells were resuspended in AIM V serum-free media, then were added to the top chamber of a […] polycarbonate Transwell insert and incubated with the indicated concentrations of the ligands and peptides in the bottom chamber for 2.5 hours at 37° C. T cells that migrated to the bottom chamber were collected, stained with anti-CD3 antibody, and counted using Beckman Coulter Cytoflex flow cytometer. 123count eBeads counting beads were added to each of the wells for obtaining the absolute cell counts.

[5] = test system: RENCA tumor model; experiment: CXCL10 and CD8a levels in RENCA tumor bearing mice; assay type: in vivo, Balb/c mice; details: 2.5 mg/kg BID peritumorally for 7d
Protocol: Several mechanism of action related endpoints were also measured in vivo. Balb/c mice were implanted with RENCA cells and treated with candidate lead peptides and control compounds. Dosing occurred during the 1st week only: SG-3-00802 was dosed peritumorally at 2.5 mg/kg BID for 7d, anti-PD-1 was dosed i.p. at 10 mg/kg TIW for a total of 3 doses.

Sequence: MKVRPSVKPMCEKCKIIRRKGRVMVICENPKHKQRQG [SG-3-00802]
- binding partners enriched over transferrin ligand [1]: Chemokine receptors
- activity of CXCR3 in presence of ligand (PAM1) ([2]; CXCL9 at EC20): enhanced activity of CXCR3
- activity of CXCR3 in presence of ligand (PAM1) ([2]; CXCL10 at EC20): enhanced activity of CXCR3
- activity of CXCR3 in presence of ligand (PAM1) ([2]; CXCL11 at EC20): enhanced activity of CXCR3
- % Agonist Activity [3]: 2%
- % Antagonist Activity [3]: −48%
- T cell migration to suboptimal level of ligand ([4]; CXCL9, 2.5 hours): increased migration
- T cell migration to suboptimal level of ligand ([4]; CXCL10, 2.5 hours): increased migration
- T cell migration to suboptimal level of ligand ([4]; CXCL11, 2.5 hours): increased migration
- CD8a expression in the tumor [5]: increase in CD8a expression
- expression of CXCL10 in the tumor [5]: increased expression of CXCL10 in the tumor
- serum levels of CXCL10 [5]: increased serum levels of CXCL10
